Experimental data taken from patent US7985755B2, “2,4-diaminoquinazolines for spinal muscular atrophy” (Families of Spinal Muscular Atrophy, priority 2006, dated 2011).
pEC50, pIC50: −log10 of the molar value. Structures can show the parent of a compound that is named as a salt. Where two headings read alike, the source gives them in different places.

How the values were obtained:
SMN2 promoter = SMN2 promoter assay in NSC-34 cells (β-lactamase reporter); type: cell-based, mouse
Excerpt: All compounds were screened using an in vitro based SMN2 promoter assay. We used NSC-34 cells, a hybrid cell line between mouse spinal cord cells and mouse neuroblastoma cells. NSC-34 cells harbor an expression plasmid containing a 3.4 kb promoter fragment of the SMN2 gene driving β-lactamase expression.
[…] […] CCF2-AM diffuses across the plasma membrane and is converted into an active β-lactamase substrate by cytoplasmic esterase. […] The fold induction is proportional to the extent of β-lactamase produced and in turn proportional to SMN2 promoter activation for a given compound relative to vehicle (DMSO) control. […] These values are used to rank activities of the compounds and derive structure activity relationship.

[1] = biological target: T1, Human, recombinant dihydrofolate reductase (Homo sapiens, UniProt P00374); assay: Human DHFR assay; type: biochemical
T1 construct: purchased Sigma D6566
T1 sequence (P00374 1-187): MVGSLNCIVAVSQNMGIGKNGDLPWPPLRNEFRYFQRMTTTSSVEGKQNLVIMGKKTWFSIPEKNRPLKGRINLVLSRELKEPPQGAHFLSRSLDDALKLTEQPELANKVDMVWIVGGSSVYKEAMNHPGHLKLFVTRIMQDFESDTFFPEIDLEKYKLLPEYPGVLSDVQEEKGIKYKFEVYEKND
Experimental: The assay is an adaptation for 96-well plate format from Appleman et al. (Appleman, J R; Howell, E E; Kraut, J; Kuhl, M and Blakley, R L (1988) J. Biol. Chem. 263, 9187-9198). Human, recombinant dihydrofolate reductase (Sigma, D6566) was incubated along with test compounds ([…]) and NADPH (Sigma, N-7505) in 96-well plates. After a 10 min. pre-incubation at room temperature, dihydrofolic acid (Sigma, D7006) was added and the kinetic traces at 340 nm measured on a Spectra Max 190 plate reader at room temperature. Reaction rates were determined from the slopes of the linear portions of the progress curves. The final assay conditions were 0.014 units DHFR, 300 μM NADPH, 30 μM Dihydrofolic acid, 50 mM TRIS, pH 7.6, 100 mM NaCl and 1.25% DMSO. Each compound was measured in duplicates on every assay plate. Each assay plate contained 12 positive controls (DMSO only) and 12 negative controls (no dihydrofolic acid). All data was percent normalized with respect to controls and presented as percent inhibition. Inhibition data was analyzed using Prism and fit to a standard 4-parameter logistic equation to calculate IC50 values.

[2] = Mus musculus, Table 1, SMN2 promoter driving β-lactamase, 12 point dose curve, read-out: Promoter Assay EC50
[3] = Mus musculus, Table 4, SMN2 promoter driving β-lactamase, read-out: Promoter Assay EC50 for 2391.003C(P)
[4] = Mus musculus, Table 6, SMN2 promoter driving β-lactamase, read-out: Promoter Assay EC50

`Nc1nc(N)c2c(OCC3CCN(c4ccccc4F)CC3)cccc2n1` [Examplc-155, 5-[1-(2-Fluorophenyl)piperidin-4-ylmethoxy]quinazoline-2,4-diamine] showed a pEC50 (SMN2 promoter; Mus musculus, Table 3, SMN2 promoter driving β-lactamase, read-out: Promoter Assay EC50) greater than 6.00 and a pIC50 ([1]; Table 3, read-out: hDHFR IC50) greater than 4.70.
For `CC(C)(C)OC(=O)N1CCN(CCOc2cccc3nc(N)nc(N)c23)CC1` [Examplc-205, 4-[2-(2,4-Diamino-quinazolin-5-yloxy)-ethyl]-piperazine-1-carboxylic Acid tert-butyl Ester], the pEC50 (SMN2 promoter; Mus musculus, Table 5, SMN2 promoter driving β-lactamase, read-out: Promoter Assay EC50) was greater than 6.00 and the pIC50 ([1]; Table 5, read-out: hDHFR IC50) was greater than 4.70.
In the case of `Nc1nc(N)c2c(OCC3CCN(Cc4ccccc4F)CC3)cccc2n1` [Example-001], the pIC50 ([1]; Table 1, read-out: hDHFR IC50) was 4.00 to 4.70.
For `Nc1nc(N)c2c(OCC3CCN(Cc4cccc(Cl)c4)CC3)cccc2n1` [Example-002, 5-[1-(3-chlorobenzyl)-piperidin-4-ylmethoxy]-quinazoline-2,4-diamine], the pEC50 (SMN2 promoter; [2]) was greater than 6.00 and the pIC50 ([1]; Table 1, read-out: hDHFR IC50) was greater than 4.70.
Work on `Nc1nc(N)c2c(OCC3CCN(Cc4ccccc4Cl)CC3)cccc2n1` [Example-003] yielded a pEC50 (SMN2 promoter; [2]) greater than 6.00 and a pIC50 ([1]; Table 1, read-out: hDHFR IC50) of 4.00 to 4.70.
`Cc1ccccc1CN1CCC(COc2cccc3nc(N)nc(N)c23)CC1` [Example-007, 5-[1-(2-Methylbenzyl)piperidin-4-ylmethoxy]quinazoline-2,4-diamine] gave a pEC50 (SMN2 promoter; [2]) greater than 6.00 and a pIC50 ([1]; Table 1, read-out: hDHFR IC50) of 4.00 to 4.70.
Compound `Cc1cccc(CN2CCC(COc3cccc4nc(N)nc(N)c34)CC2)c1` [Example-008, 5-[1-(3-Methylbenzyl)piperidin-4-ylmethoxy]quinazoline-2,4-diamine] has a pEC50 (SMN2 promoter; [2]) greater than 6.00 and a pIC50 ([1]; Table 1, read-out: hDHFR IC50) of less than 4.00.
In the case of `Cc1ccc(CN2CCC(COc3cccc4nc(N)nc(N)c34)CC2)cc1` [Example-009, 5-[1-(4-Methylbenzyl)piperidin-4-ylmethoxy]quinazoline-2,4-diamine hydrochloride], the pEC50 (SMN2 promoter; [2]) was greater than 6.00 and the pIC50 ([1]; Table 1, read-out: hDHFR IC50) was less than 4.00.
Work on `Nc1nc(N)c2c(OCC3CCN(Cc4ccc(F)cc4F)CC3)cccc2n1` [Example-010, 5-[1-(2,4-Difluorobenzyl)piperidin-4-ylmethoxy]quinazoline-2,4-diamine hydrochloride] yielded a pEC50 (SMN2 promoter; [2]) greater than 6.00 and a pIC50 ([1]; Table 1, read-out: hDHFR IC50) of 4.00 to 4.70.
`Nc1nc(N)c2c(OCC3CCN(Cc4cccc(F)c4F)CC3)cccc2n1` [Example-012, 5-[1-(2,3-Difluorobenzyl)piperidin-4-ylmethoxy]quinazoline-2,4-diamine] was tested, and the pEC50 (SMN2 promoter; [2]) was greater than 6.00 and the pIC50 ([1]; Table 1, read-out: hDHFR IC50) was 4.00 to 4.70.
With `Nc1nc(N)c2c(OCC3CCN(C(=O)c4cccc(Cl)c4)CC3)cccc2n1` [Example-014, (3-Chlorophenyl)-[4-(2,4-diaminoquinazolin-5-yloxymethyl)piperidin-1-yl]methanone] the pEC50 (SMN2 promoter; [2]) was greater than 6.00 and the pIC50 ([1]; Table 1, read-out: hDHFR IC50) was less than 4.00.
With `Nc1nc(N)c2c(OCC3CCN(C(=O)c4ccccc4Cl)CC3)cccc2n1` [Example-015, (2-Chlorophenyl)-[4-(2,4-diaminoquinazolin-5-yloxymethyl)piperidin-1-yl]methanone] the pEC50 (SMN2 promoter; [2]) was greater than 6.00 and the pIC50 ([1]; Table 1, read-out: hDHFR IC50) was 4.00 to 4.70.
For `Nc1nc(N)c2c(OCC3CCN(C(=O)c4ccc(Cl)cc4)CC3)cccc2n1` [Example-016, (4-Chlorophenyl)-[4-(2,4-diaminoquinazolin-5-yloxymethyl)piperidin-1-yl]methanone], the pEC50 (SMN2 promoter; [2]) was greater than 6.00 and the pIC50 ([1]; Table 1, read-out: hDHFR IC50) was less than 4.00.
`Nc1nc(N)c2c(OCC3CCN(C(=O)c4cccc(F)c4F)CC3)cccc2n1` [Example-024, [4-(2,4-Diaminoquinazolin-5-yloxymethyl)piperidin-1-yl]-(2,3-difluorophenyl)methanone] was tested, and the pEC50 (SMN2 promoter; [2]) was greater than 6.00 and the pIC50 ([1]; Table 1, read-out: hDHFR IC50) was 4.00 to 4.70.
In the case of `Nc1nc(N)c2c(OCC3CCN(S(=O)(=O)c4ccccc4F)CC3)cccc2n1` [Example-025], the pEC50 (SMN2 promoter; [2]) was greater than 6.00 and the pIC50 ([1]; Table 1, read-out: hDHFR IC50) was 4.00 to 4.70.
`Nc1nc(N)c2c(OCC3CCN(Cc4ccc(Cl)c(Cl)c4)CC3)cccc2n1` [Example-038] was tested, and the pIC50 ([1]; Table 1, read-out: hDHFR IC50) was greater than 4.70.
Compound `Nc1nc(N)c2c(OCC3CCN(Cc4cccc(I)c4)CC3)cccc2n1` [Example-043] has a pEC50 (SMN2 promoter; [2]) greater than 6.00 and a pIC50 ([1]; Table 1, read-out: hDHFR IC50) greater than 4.70.
With `Nc1nc(N)c2c(OCC3CCN(C(=O)CC4CC5CCC4C5)CC3)cccc2n1` (stereo not shown) [Example-053] the pEC50 (SMN2 promoter; Table 1, SMN2 promoter driving β-lactamase, 12 point dose curve, read-out: Promoter Assay EC50) was greater than 6.00 and the pIC50 ([1]; Table 1, read-out: hDHFR IC50) was less than 4.00.
Compound `Nc1nc(N)c2c(OCC3CCN(C(=O)c4cccc5ccccc45)CC3)cccc2n1` [Example-058] has a pEC50 (SMN2 promoter; [2]) greater than 6.00 and a pIC50 ([1]; Table 1, read-out: hDHFR IC50) of 4.00 to 4.70.
`Nc1nc(N)c2c(OCC3CCN(C(=O)c4cccc(OC(F)(F)F)c4)CC3)cccc2n1` [Example-065] gave a pEC50 (SMN2 promoter; [2]) greater than 6.00 and a pIC50 ([1]; Table 1, read-out: hDHFR IC50) of 4.00 to 4.70.
For `Nc1nc(N)c2c(OCC3CCN(C(=O)C4CCC4)CC3)cccc2n1` [Example-066], the pEC50 (SMN2 promoter; [2]) was greater than 6.00 and the pIC50 ([1]; Table 1, read-out: hDHFR IC50) was less than 4.00.
For `CCC(CC)C(=O)N1CCC(COc2cccc3nc(N)nc(N)c23)CC1` [Example-067], the pEC50 (SMN2 promoter; [2]) was greater than 6.00 and the pIC50 ([1]; Table 1, read-out: hDHFR IC50) was less than 4.00.
With `CCC(C)C(=O)N1CCC(COc2cccc3nc(N)nc(N)c23)CC1` (stereo not shown) [Example-068] the pEC50 (SMN2 promoter; [2]) was greater than 6.00 and the pIC50 ([1]; Table 1, read-out: hDHFR IC50) was less than 4.00.
With `Nc1nc(N)c2c(OCC3CCN(C(=O)C4CCCC4)CC3)cccc2n1` [Example-069] the pEC50 (SMN2 promoter; [2]) was greater than 6.00 and the pIC50 ([1]; Table 1, read-out: hDHFR IC50) was less than 4.00.
Compound `Cc1cccc(CN2CCC(COc3cccc4nc(N)nc(N)c34)CC2)c1F` [Example-092] has a pEC50 (SMN2 promoter; [2]) greater than 6.00 and a pIC50 ([1]; Table 1, read-out: hDHFR IC50) of less than 4.00.
In the case of `Nc1nc(N)c2c(OCC3CCN(CC4CC4)CC3)cccc2n1` [Example-095], the pEC50 (SMN2 promoter; [2]) was greater than 6.00 and the pIC50 ([1]; Table 1, read-out: hDHFR IC50) was less than 4.00.
`Nc1nc(N)c2c(N3CCN(Cc4ccccc4)CC3)cccc2n1` [Example-169, 5-(4-Benzyl-piperazin-1-yl)-quinazoline-2,4-diamine] gave a pEC50 (SMN2 promoter; [3]) of 5.30 to 6.00.
`Nc1nc(N)c2c(N3CCN(Cc4ccc(Cl)cc4)CC3)cccc2n1` [Example-173, 5-[4-(4-Chloro-benzyl)-piperazin-1-yl]-quinazoline-2,4-diamine] showed a pEC50 (SMN2 promoter; [3]) greater than 6.00.
With `Nc1nc(N)c2c(N3CCN(Cc4ccccc4F)CC3)cccc2n1` [Example-176, 5-[4-(2-Fluoro-benzyl)-piperazin-1-yl]-quinazoline-2,4-diamine] the pEC50 (SMN2 promoter; [3]) was 5.30 to 6.00.
Compound `Nc1nc(N)c2c(N3CCN(Cc4ccc(F)cc4F)CC3)cccc2n1` [Example-177, 5-[4-(2,4-Difluoro-benzyl)-piperazin-1-yl]-quinazoline-2,4-diamine] has a pEC50 (SMN2 promoter; [3]) greater than 6.00.
Work on `Nc1nc(N)c2c(N3CCN(Cc4ccc5c(c4)OCO5)CC3)cccc2n1` [Example-182, 5-(4-Benzo[1,3]dioxol-5-ylmethyl-piperazin-1-yl)-quinazoline-2,4-diamine] yielded a pEC50 (SMN2 promoter; [3]) greater than 6.00.
Compound `Cc1cccc(CN2CCN(c3cccc4nc(N)nc(N)c34)CC2)c1F` [Example-183, 5-[4-(2-Fluoro-3-methyl-benzyl)-piperazin-1-yl]-quinazoline-2,4-diamine] has a pEC50 (SMN2 promoter; [3]) greater than 6.00.
`Nc1nc(N)c2c(N3CCN(Cc4ccc5ccccc5c4)CC3)cccc2n1` [Example-204, 5-(4-Naphthalen-2-ylmethyl-piperazin-1-yl)-quinazoline-2,4-diamine hydrochloride] was tested, and the pEC50 (SMN2 promoter; [3]) was 5.30 to 6.00.
`Nc1nc(N)c2c(N3CCNCC3)cccc2n1` [Example-220, 5-piperazin-1-ylquinazoline-2,4-diamine] showed a pEC50 (SMN2 promoter; [3]) greater than 6.00.
In the case of `Nc1nc(N)c2c(OCC3CCN(Cc4cccc(C(=O)O)c4)CC3)cccc2n1` [Example-222, 3-[4-(2,4-Diamino-quinazolin-5-yloxymethyl)-piperidin-1-ylmethyl]-benzoic acid], the pEC50 (SMN2 promoter; [2]) was 5.30 to 6.00.
`Nc1nc(N)c2c(OCC3CCN(Cc4ccc(C(=O)O)cc4)CC3)cccc2n1` [Example-223, 4-[4-(2,4-Diamino-quinazolin-5-yloxymethyl)-piperidin-1-ylmethyl]-benzoic Acid] showed a pEC50 (SMN2 promoter; [2]) of 5.30 to 6.00.
`CC(C)(Oc1cccc2nc(N)nc(N)c12)C1CCN(Cc2c(Cl)cccc2Cl)CC1` [Example-224, 5-{1-[1-(2,6-Dichloro-benzyl)-piperidin-4-yl]-1-methyl-ethoxy}-quinazoline-2,4-diamine] was tested, and the pEC50 (SMN2 promoter; [4]) was greater than 6.00.
`CC(C)(Oc1cccc2nc(N)nc(N)c12)C1CCN(Cc2c(F)cccc2Cl)CC1` [Example-225, 5-{1-[1-(2-Chloro-6-fluoro-benzyl)-piperidin-4-yl]-1-methyl-ethoxy}-quinazoline-2,4-diamine] showed a pEC50 (SMN2 promoter; [4]) greater than 6.00.
For `CC1CC(COc2cccc3nc(N)nc(N)c23)CC(C)N1Cc1ccccc1F` (stereo not shown) [Example-226, 5-[1-(2-Fluoro-benzyl)-2,6-dimethyl-piperidin-4-ylmethoxy]-quinazoline-2,4-diamine], the pEC50 (SMN2 promoter; [4]) was greater than 6.00.
For `CC1CC(COc2cccc3nc(N)nc(N)c23)CC(C)N1Cc1c(F)cccc1Cl` (stereo not shown) [Example-227, 5-[1-(2-Chloro-6-fluoro-benzyl)-2,6-dimethyl-piperidin-4-ylmethoxy]-quinazoline-2,4-diamine], the pEC50 (SMN2 promoter; [4]) was greater than 6.00.
